{"source": "patent US20210299204A1", "about": "(priority 2020, published 2021)", "assay": "Adverse outcome after a Depo-Provera shot for endometrial treatment", "conditions": "inventor themself, one shot, 1987; attributed to the preservative in the drug"}
{"smiles": "CC(=O)O[C@]1(C(C)=O)CC[C@H]2[C@@H]3C[C@H](C)C4=CC(=O)CC[C@]4(C)[C@H]3CC[C@@]21C", "note": "[Depo-Provera]", "values": [{"measurement": "adverse result of treatment", "value": "retinal atrophy"}]}
